# Active and inactive are the calls of the source.
# Tests used:
# [1] = target: T1, Short transient receptor potential channel 4 (Mus musculus, UniProt Q9QUQ5); experiment: SAR Analysis for the identification of selective inhibits of the transient receptor potential cation channel C4 (TRPC4): Automated Electrophysiology. [Related pubchem assays (depositor defined):AID2256]; type: functional
# T1 sequence (Q9QUQ5 whole entry): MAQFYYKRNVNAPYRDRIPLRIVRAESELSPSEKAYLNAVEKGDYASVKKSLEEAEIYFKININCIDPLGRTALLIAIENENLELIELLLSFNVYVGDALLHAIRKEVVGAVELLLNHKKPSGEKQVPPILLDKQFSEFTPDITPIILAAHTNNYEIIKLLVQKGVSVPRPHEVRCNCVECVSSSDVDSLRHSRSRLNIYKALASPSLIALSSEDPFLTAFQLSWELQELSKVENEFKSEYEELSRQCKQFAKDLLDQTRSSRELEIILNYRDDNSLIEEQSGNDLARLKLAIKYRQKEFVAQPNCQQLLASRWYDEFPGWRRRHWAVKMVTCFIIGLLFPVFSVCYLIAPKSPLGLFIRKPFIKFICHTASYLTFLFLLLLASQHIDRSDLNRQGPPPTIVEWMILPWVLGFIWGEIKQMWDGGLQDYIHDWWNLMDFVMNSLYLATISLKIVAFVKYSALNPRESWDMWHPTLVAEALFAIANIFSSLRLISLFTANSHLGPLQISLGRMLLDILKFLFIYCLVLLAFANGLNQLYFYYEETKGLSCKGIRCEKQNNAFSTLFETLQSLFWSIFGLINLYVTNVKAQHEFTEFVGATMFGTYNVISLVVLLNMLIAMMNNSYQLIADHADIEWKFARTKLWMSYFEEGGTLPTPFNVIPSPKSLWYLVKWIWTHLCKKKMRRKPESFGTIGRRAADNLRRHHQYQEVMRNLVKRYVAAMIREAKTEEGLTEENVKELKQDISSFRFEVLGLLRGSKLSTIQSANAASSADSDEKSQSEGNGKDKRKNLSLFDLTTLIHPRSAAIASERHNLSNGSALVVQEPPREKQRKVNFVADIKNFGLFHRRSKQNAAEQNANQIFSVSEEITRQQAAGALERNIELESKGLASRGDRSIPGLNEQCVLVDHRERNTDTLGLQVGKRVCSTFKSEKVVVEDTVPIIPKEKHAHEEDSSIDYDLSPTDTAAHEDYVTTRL
# [2] = target: T1, Short transient receptor potential channel 4; experiment: SAR Analysis for the identification of selective inhibitors of the transient receptor potential cation channel C4 (TRPC4): TRPC4 Serotonin Receptor CRC MPD assay. [Related pubchem assays (depositor defined):AID2247, AID2256]; type: functional
# [3] = target: T1, Short transient receptor potential channel 4; experiment: TRPC4 inhibition under acetylcholine activation, SAR follow-up, cell-based, acetylcholine stimulus, HEK293 TRPC4, Fluo-4 (AID 492996); type: functional
# [4] = target: T1, Short transient receptor potential channel 4; experiment: TRPC4 inhibitor concentration-response, dose response, cell-based, HEK293 TRPC4/mu-opioid, DAMGO stimulus, Fluo-4 (AID 492994); type: functional
# HeLa = experiment: Cytotoxicity counterscreen assay for transcriptional activators of heat shock protein 70 (Hsp70). [Related pubchem assays: 1203, 1252 ]; type: functional; conditions: Homo sapiens;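 further: cells exposed to compound for 16 hours before readout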
# [5] = inhibitors of CMV-promoter luciferase reporter, dose response, counter-screen for Pax8 inhibitor project, cell-based, HEK293, luminescence, dry powder (AID 743020); type: functional
# Paired box protein Pax-8 = Paired box protein Pax-8 (Homo sapiens, UniProt Q06710); experiment: inhibitors of PAX8-driven TPO luciferase reporter, dose response, RMG-I cells, cherry-pick (AID 687027); type: functional, cell-based;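 further: luciferase reporter driven by Pax8 target thyroperoxidase promoter measured by SteadyGlo luminescence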
# A-375 [6] = experiment: MITF: Counter assay: A375 proliferation Measured in Cell-Based System Using Plate Reader - 2084-03_Inhibitor_Dose_DryPowder_Activity. [Related pubchem assays (depositor defined):AID488944]; type: functional; conditions: Homo sapiens
# [7] = HepG2 cell cytotoxicity, dose response, cytotoxicity control for Shn3 inhibitor project, CellTiter-Glo, cherry-picked (AID 624134); type: functional, cell-based
# A-375 [8] = experiment: A375 melanoma cell viability reduction, dose response, counter-screen for MITF modulator project, cherry-pick samples, set 2 (AID 540335); type: functional, cell-based; conditions: Homo sapiens
# [9] = target: T2, Microphthalmia-associated transcription factor (Homo sapiens, UniProt O75030); experiment: TRPM1 promoter luciferase signal decrease, dose response, MITF inhibitor project, cell-based, SK-MEL-5, cherry-picked, set 3 (AID 493073); type: functional
# T2 sequence (O75030 whole entry): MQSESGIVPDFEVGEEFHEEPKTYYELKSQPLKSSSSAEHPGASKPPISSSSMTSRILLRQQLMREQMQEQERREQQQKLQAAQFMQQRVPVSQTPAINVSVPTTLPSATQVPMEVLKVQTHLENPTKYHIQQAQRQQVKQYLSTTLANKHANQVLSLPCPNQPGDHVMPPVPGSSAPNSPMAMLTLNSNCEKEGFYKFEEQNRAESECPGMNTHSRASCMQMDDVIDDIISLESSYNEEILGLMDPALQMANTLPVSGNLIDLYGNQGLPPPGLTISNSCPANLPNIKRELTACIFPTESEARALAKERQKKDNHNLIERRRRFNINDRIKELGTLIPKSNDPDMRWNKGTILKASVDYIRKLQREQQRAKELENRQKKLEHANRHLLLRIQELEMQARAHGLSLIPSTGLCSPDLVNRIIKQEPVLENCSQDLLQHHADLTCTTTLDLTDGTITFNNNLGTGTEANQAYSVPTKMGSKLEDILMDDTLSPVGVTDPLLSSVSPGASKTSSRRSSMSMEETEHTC
# [10] = Shn3 3'UTR reporter inhibitors, dose response, cell-based, Clone20 osteoblasts, firefly luciferase, cherry-picked (AID 624132); type: functional;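 further: firefly luciferase luminescence from reporter carrying the Shn3 3'UTR in osteoblasts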
# [11] = control 3'UTR Renilla luciferase suppression, dose response, counter-screen for Shn3 inhibitor project, cell-based, Clone20-Shn3RL, cherry-picked (AID 624133); type: functional
# [12] = Luminescence Cell-Based/Microorganism Confirmation at Dose of Inhibitors of Trypanosoma cruzi Infection. [Related pubchem assays: 1885, 1968 ]; type: functional
# [13] = inhibitors of Trypanosoma cruzi host-cell infection, confirmation, beta-gal luminescence, NIH3T3 host cells (AID 2630); type: functional, cell-based; conditions: Mus musculus
# [14] = Luminescence Cell-Based Secondary HTS screen to identify cytotoxic compounds of NIH3T3 cells. [Related pubchem assays: 1885, 1968 ]; type: functional
# Cytochrome P450 1A2 = target: T3, Cytochrome P450 1A2 (Homo sapiens, UniProt P05177);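 further: PubChem cytochrome P450 panel assay, CYP1A2 panel member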
# T3 sequence (P05177 whole entry): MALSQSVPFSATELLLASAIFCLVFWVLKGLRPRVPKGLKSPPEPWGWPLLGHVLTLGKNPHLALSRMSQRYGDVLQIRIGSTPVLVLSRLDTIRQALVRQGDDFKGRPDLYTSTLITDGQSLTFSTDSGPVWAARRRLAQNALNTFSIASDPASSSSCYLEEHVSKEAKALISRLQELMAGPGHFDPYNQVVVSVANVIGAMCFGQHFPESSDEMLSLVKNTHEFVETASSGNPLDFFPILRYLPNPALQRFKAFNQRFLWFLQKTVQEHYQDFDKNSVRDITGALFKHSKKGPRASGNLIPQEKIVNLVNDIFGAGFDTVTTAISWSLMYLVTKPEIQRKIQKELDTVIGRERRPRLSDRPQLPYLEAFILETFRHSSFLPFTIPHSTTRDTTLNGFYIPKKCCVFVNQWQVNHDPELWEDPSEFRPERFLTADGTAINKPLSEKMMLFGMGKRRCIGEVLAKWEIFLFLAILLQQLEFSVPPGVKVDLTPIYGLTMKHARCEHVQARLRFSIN
# Cytochrome P450 3A4 = Cytochrome P450 3A4 (Homo sapiens, UniProt P08684);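 further: CYP3A4 tested as one member of a cytochrome P450 panel screen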
# Cytochrome P450 2C19 = Cytochrome P450 2C19 (Homo sapiens, UniProt P33261); experiment: Cytochrome panel assay with activity outcomes. Panel member name: p450-cyp2c19 Compounds with AC50 equal or less than 10 uM are considered active; type: functional
# Cytochrome P450 2C9 = Cytochrome P450 2C9 (Homo sapiens, UniProt P11712)
# Cytochrome P450 2D6 = Cytochrome P450 2D6 (Homo sapiens, UniProt P10635);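 further: CYP2D6 member of a cytochrome P450 panel assay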
# Escherichia coli = experiment: microbe, parasite or virus in culture
# INS1 [15] = experiment: beta cell apoptosis inhibitors, cytokine rescue, dose response, luminescence, retest (AID 449756); type: functional, cell-based; conditions: Rattus norvegicus;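 further: cell death triggered by IL-1 beta plus TNF-alpha plus IFN-gamma mixture; protective hits raise ATP signal compared with cytokine alone wells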
# Galanin receptor type 3 = Galanin receptor type 3 (Homo sapiens, UniProt O60755); experiment: Fluorescence-based cell-based primary high throughput dose response assay to identify antagonists of the Galanin Receptor 3 (GalR3).; type: functional
# Galanin receptor type 2 = Galanin receptor type 2 (Homo sapiens, UniProt O43603); experiment: Dose Response cell-based high-throughput screening assay to identify antagonists of galanin receptor 2 (GALR2). [Related pubchem assays: 828, 866 ]; type: functional
# Jurkat = experiment: antigen receptor-induced NF-kB inhibitors, dose response, Jurkat, luciferase reporter, luminescence, B- and T-cell (AID 489004); type: functional, cell-based; conditions: Homo sapiens;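 further: NF-kB luciferase reporter Jurkat cells stimulated with PMA plus ionomycin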
# [16] = cytotoxicity in HEK-293T NF-kB-Luc cells, dose response, cytotoxicity control for B/T-cell NF-kB inhibitor project, cell-based, uHTS hits (AID 489019); type: functional;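 further: IC50 reflects cytotoxicity as loss of cell viability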
# cells = type: functional, cell-based; conditions: HEK-CNG
# INS1 [17] = experiment: protection from cytokine-induced mitochondrial depolarization, dose response, cell-based, INS-1E, JC-1 fluorescence ratio, dry powder (AID 488931); type: functional; conditions: Rattus norvegicus
# INS1 [18] = experiment: protection of INS-1E cells from cytokine death, dose response, ATP luminescence, dry powder (AID 488844); type: functional, cell-based; conditions: Rattus norvegicus
# [19] = cytotoxicity in HEK-293T cells, dose response, cytotoxicity control for TCR NF-kB inhibitor project, luminescence, T-cell screen hits (AID 489026); type: functional, cell-based;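 further: cells exposed to compound about 14 hours before the viability readout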
# Cysteine protease ATG4B = target: T4, Cysteine protease ATG4B (Homo sapiens, UniProt Q9Y4P1); experiment: ATG4B protease inhibitors, dose response, biochemical, fluorescence, set 2 (AID 588584); type: functional
# T4 sequence (Q9Y4P1 whole entry): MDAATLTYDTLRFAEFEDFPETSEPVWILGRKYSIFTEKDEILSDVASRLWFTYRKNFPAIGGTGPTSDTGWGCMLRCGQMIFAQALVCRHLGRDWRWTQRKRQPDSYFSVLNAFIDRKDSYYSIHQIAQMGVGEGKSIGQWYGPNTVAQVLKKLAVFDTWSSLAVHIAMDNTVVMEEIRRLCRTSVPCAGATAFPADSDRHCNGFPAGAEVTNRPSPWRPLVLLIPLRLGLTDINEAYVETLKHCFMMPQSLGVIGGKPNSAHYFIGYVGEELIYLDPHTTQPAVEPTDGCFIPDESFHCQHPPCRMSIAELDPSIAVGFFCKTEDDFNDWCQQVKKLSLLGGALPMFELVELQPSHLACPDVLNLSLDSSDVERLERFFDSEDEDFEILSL
# Phospholipase A2 = Phospholipase A2 (Homo sapiens, UniProt P04054); experiment: PLA2 enzyme inhibitors, dose response, counter-screen for ATG4B inhibitor project, biochemical, set 2 (AID 588586); type: functional
# Chain of Phospholipase A2 (P04054 whole entry): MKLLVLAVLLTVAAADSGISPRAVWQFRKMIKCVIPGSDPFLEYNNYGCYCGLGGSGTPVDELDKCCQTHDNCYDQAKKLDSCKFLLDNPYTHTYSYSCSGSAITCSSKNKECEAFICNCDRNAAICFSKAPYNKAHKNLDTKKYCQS
# Chain of Paired box protein Pax-8 (Q06710 whole entry): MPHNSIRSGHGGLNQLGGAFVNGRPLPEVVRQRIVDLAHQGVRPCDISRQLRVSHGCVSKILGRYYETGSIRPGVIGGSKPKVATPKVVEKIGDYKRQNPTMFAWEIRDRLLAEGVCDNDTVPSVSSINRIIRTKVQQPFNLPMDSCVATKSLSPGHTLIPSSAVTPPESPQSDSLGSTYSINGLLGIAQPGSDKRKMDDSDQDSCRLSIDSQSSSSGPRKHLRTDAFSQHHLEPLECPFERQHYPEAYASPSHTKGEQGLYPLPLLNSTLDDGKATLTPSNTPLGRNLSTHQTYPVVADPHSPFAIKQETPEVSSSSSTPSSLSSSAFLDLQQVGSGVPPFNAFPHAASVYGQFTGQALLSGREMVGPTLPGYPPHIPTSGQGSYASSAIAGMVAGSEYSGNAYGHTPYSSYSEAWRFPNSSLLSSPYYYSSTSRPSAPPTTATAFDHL
# Chain of Cytochrome P450 2C9 (P11712 whole entry): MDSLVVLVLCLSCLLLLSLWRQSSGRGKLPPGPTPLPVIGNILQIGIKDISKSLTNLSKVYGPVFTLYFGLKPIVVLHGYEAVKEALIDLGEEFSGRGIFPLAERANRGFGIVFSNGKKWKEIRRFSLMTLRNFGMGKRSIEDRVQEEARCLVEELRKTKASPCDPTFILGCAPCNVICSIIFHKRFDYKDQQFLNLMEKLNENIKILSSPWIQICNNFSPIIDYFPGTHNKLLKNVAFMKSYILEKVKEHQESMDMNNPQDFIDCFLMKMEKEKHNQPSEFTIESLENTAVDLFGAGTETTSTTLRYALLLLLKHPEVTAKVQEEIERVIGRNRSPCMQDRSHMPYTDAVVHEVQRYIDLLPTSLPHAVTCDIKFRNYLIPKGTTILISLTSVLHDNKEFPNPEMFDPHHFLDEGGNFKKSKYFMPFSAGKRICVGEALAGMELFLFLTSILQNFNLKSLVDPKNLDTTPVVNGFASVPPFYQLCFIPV
# Chain of Cytochrome P450 2C19 (P33261 whole entry): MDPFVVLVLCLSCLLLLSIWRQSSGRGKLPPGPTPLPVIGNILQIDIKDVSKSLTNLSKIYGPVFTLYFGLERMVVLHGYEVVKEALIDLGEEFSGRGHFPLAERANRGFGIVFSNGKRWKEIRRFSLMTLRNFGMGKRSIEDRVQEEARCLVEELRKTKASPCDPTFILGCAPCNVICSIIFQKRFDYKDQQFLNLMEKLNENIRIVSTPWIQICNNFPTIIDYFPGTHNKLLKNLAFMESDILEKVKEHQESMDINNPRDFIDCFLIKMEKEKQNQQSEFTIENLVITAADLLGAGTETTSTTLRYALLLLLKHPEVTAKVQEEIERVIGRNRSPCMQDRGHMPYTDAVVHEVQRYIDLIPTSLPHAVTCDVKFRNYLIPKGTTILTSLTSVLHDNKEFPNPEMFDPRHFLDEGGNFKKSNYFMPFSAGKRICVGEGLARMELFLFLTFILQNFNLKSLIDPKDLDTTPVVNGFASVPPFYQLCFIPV
# Chain of Cytochrome P450 2D6 (P10635 whole entry): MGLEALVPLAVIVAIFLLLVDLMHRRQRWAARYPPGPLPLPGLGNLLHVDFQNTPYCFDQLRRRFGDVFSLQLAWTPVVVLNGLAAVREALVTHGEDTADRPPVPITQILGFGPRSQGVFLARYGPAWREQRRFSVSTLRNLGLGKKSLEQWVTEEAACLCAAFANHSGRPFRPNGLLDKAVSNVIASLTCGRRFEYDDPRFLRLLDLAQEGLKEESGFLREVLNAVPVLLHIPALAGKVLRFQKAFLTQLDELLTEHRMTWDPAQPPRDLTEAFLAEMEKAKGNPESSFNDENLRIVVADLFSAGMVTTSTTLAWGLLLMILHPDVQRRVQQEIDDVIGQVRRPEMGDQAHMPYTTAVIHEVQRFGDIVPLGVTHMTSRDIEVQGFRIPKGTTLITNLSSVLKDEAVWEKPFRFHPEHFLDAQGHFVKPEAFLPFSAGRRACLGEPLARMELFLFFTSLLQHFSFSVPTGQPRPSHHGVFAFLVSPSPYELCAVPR
# Chain of Galanin receptor type 2 (O43603 whole entry): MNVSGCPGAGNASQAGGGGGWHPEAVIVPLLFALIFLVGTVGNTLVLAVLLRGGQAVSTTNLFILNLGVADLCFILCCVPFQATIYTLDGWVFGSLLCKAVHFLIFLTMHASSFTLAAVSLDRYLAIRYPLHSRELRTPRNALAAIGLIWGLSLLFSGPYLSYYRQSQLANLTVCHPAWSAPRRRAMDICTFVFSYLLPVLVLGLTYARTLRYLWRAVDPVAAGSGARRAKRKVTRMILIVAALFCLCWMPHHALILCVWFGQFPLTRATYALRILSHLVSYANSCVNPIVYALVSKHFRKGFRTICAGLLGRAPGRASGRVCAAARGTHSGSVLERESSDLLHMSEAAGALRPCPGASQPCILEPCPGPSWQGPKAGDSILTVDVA
# Chain of Galanin receptor type 3 (O60755 whole entry): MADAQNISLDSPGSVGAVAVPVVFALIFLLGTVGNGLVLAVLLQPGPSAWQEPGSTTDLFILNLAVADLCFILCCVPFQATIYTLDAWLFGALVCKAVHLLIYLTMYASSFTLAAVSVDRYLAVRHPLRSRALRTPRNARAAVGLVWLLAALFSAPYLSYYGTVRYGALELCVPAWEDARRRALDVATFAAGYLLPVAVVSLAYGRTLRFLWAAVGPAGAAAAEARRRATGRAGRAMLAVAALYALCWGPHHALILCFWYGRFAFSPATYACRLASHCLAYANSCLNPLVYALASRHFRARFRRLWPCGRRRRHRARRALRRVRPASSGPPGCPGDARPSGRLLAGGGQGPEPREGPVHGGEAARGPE
# Chain of Cytochrome P450 3A4 (P08684 whole entry): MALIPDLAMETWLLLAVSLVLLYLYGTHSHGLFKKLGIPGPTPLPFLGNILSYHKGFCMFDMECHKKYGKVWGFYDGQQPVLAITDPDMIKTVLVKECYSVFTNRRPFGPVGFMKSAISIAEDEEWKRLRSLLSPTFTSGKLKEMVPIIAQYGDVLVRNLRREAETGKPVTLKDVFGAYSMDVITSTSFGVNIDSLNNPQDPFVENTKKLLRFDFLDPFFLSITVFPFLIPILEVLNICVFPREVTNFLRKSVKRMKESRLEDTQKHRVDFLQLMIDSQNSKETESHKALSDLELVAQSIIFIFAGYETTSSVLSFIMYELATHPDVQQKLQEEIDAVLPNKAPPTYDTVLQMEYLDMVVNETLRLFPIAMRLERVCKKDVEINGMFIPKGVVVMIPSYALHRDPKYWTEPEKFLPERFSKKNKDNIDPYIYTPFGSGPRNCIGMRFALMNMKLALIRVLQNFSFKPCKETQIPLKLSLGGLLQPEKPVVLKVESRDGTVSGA
smiles,measurement,setting,value
Cc1cc(N2CCC(C)CC2)nc2ccccc12,IC50,[1],3.14 µM (active)
same,IC50,[2],5.47 µM (active)
same,IC50,[3],20.7 µM (active)
same,IC50,[4],7.24 µM (active)
CCC(=O)N1CCN(c2ccc(NC(=O)c3ccc([N+](=O)[O-])o3)cc2Cl)CC1,CC50,HeLa,4.57 µM (active)
same,AC50,[5],2.21 µM (active)
same,AC50,Paired box protein Pax-8,4.12 µM (active)
same,AC50,A-375 [6],> 35 µM (active)
same,AC50,[7],20.5 µM (active)
same,AC50,A-375 [8],> 35 µM (active)
same,AC50,[9],6.09 µM (active)
same,AC50,[10],0.85 µM (active)
same,AC50,[11],5.2 µM (active)
CC(C)c1cccc(OCCCCN(C)C)c1,EC50,[12],2.18 µM (active)
same,EC50,[13],2.18 µM (active)
same,EC50,[14],> 195 µM (not active)
Cc1ncc(CO)c(/C=N/CCCCCC/N=C/c2c(CO)cnc(C)c2[O-])c1[O-].[Mg+2],AC50,Cytochrome P450 1A2,inactive
same,AC50,Cytochrome P450 3A4,inactive
same,AC50,Cytochrome P450 2C19,inactive
same,AC50,Cytochrome P450 2C9,inactive
same,AC50,Cytochrome P450 2D6,inactive
CC(=O)N1Cc2cc([N+](=O)[O-])ccc2Oc2ccccc21,AC50,Escherichia coli,28.5 µM (active)
Cn1nc(C(C)(C)C)cc1C(=O)NCc1ccc(N2CCCC2=O)cc1,AC50,INS1 [15],2.85 µM (active)
same,IC50,Galanin receptor type 3,1.13 µM (active)
same,IC50,Galanin receptor type 2,> 42 µM (not active)
same,IC50,Jurkat,> 80 µM (inactive)
same,IC50,[16],> 80 µM (inactive)
same,EC50,cells,> 29.9 µM (inactive)
COc1ccc(S(=O)(=O)N(C)C[C@@H]2Oc3c(NC(=O)Nc4cccc5ccccc45)cccc3C(=O)N(C(C)C)C[C@H]2C)cc1,AC50,INS1 [17],24 µM (active)
same,AC50,INS1 [18],63.7 µM (active)
Cc1noc(C)c1CSc1nc2ccccc2c(=O)n1-c1ccccc1,IC50,[19],> 80 µM (inactive)
same,IC50,Cysteine protease ATG4B,19.2 µM (active)
same,IC50,Phospholipase A2,10.7 µM (active)

# — ChEMBL document CHEMBL1201862, “PubChem BioAssay data set” (2004)
